Positions of bridges follow the written chain, without caps; N, C: chain ends. Non-standard residues stand in square brackets, D forms with d. Residues, ends and D or L forms follow the SMILES beside them. *: point of attachment. X1 = CC[C@H](C)CCCCC(=O)*; Dab = NCC[C@H](N)C(=O)O
What was measured:
Type in all cases: cell-based
[1] = test system: OmpA-deficient mutant A. baumannii, JPAB01; conditions: colistin alone, microdilution
A. baumannii ATCC 17978 [2] = conditions: colistin alone; microdilution, two independent experiments
Procedure: The minimal inhibitory concentration (MIC) of colistin in absence and presence of RW01 or RW06 at […] for A. baumannii ATCC 17978 strain was determined by microdilution assay in two independent experiments as previously reported ([Parra-Millán et al., 2018]).

E. coli ATCC 25922 = assay: Bacterial adhesion assay to A549 cells; conditions: for adherence of E. coli to A549 cells reduced to: bacteria pre-incubated with peptide 250 μg/mL 30 min, MOI 500, 2 h, CFU count
Procedure: (§1) The human pneumocyte cell line type II A549, derived from a human lung carcinoma, obtained from the American Type Culture Collection was used and cultured in DMEM medium (Invitrogen, Spain) supplemented with 10% of heat-inactivated fetal bovine serum, 50 μg/mL vancomycin (Laboratorios Normon, Spain), 20 μg/mL gentamicin (Normon Laboratories, Spain), 0.25 μg/mL amphotericin B mL (Invitrogen, Spain) and 1% HEPES (Invitrogen, Spain) in a humidified incubator, 5% CO2 at 37°C. Routine passage of A549 cells was performed every 3–4 days. Cells were seeded 24 h in 96-well plates (Sarstedt, Germany) for the cell viability assay, and in 24-well plates (Sarstedt, Germany) for the bacterial adhesion assays.
(§2) A. baumannii ATCC 17978, P. aeruginosa PAO1 and E. coli ATCC 25922 strains were incubated with AOA-2 (31.25, 62.5, 125, and 250 μg/mL, 30 min), AOA-2 derivatives RW01, RW02, RW03, RW06, RW07, RW08, RW09, RW10, RW11, and RW13 (250 μg/mL, 30 min), or AOA-2 derivatives RW01, RW02, RW03, RW06 (31.25, 62.5, and 125 μg/mL, 30 min), and added at 10^8 CFU/mL, corresponding to a multiplicity of infection (MOI) of 500, to the A549 cells for 2 h at 5% CO2 and 37°C. Subsequently, infected A549 cells were washed five times with prewarmed PBS 1X and lysed with 0.5% Triton X-100. Serial dilutions of these lysates were made and plated on blood agar plates (Blood-Agar Columbia, Becton Dickinson Microbiology Systems, United States) and incubated at 37°C for 24 h for colony counting and then determination of CFU/mL that attached to A549 cells.

A. baumannii ATCC 17978 [3] = assay: Bacterial adhesion assay to A549 cells; conditions: for adherence of A. baumannii to A549 cells reduced to: bacteria pre-incubated with peptide 250 μg/mL 30 min, MOI 500, 2 h, CFU count
Procedure: as §1, §2

P. aeruginosa PAO1 = assay: Bacterial adhesion assay to A549 cells; conditions: for adherence of P. aeruginosa to A549 cells reduced to: bacteria pre-incubated with peptide 250 μg/mL 30 min, MOI 500, 2 h, CFU count; for adherence of PAO1 strain to A549 cells compared with AOA-2: peptide 125, 62.5 and 31.25 μg/mL, some statistical differences, Figure 2B; for adherence of PAO1 strain to A549 cells (in words): peptide 250 μg/mL, 30 min, Figure 2A
Procedure: as §1, §2

[4] = peptide 250 μg/mL, 30 min, Figure 2A

| Compound | adherence of E. coli to A549 cells reduced to (E. coli ATCC 25922) [%] | adherence of A. baumannii to A549 cells reduced to (A. baumannii ATCC 17978 [3]) [%] | adherence of P. aeruginosa to A549 cells reduced to (P. aeruginosa PAO1) [%] | adherence of PAO1 strain to A549 cells compared with AOA-2 (P. aeruginosa PAO1) | adherence of PAO1 strain to A549 cells (in words) (P. aeruginosa PAO1) | other results |
| --- | --- | --- | --- | --- | --- | --- |
| CC[C@H](C)CCCCC(=O)N[C@@H](CCN)C(=O)N[C@H](C(=O)N[C@@H](CCN)C(=O)N[C@H]1CCNC(=O)[C@H]([C@@H](C)O)NC(=O)[C@H](CCN)NC(=O)[C@H](CCN)NC(=O)[C@H](CC(C)C)NC(=O)[C@@H](CC(C)C)NC(=O)[C@H](CCN)NC1=O)[C@@H](C)O [colistin, reference compound] (X1-[Dab]T[Dab][Dab][Dab][dL]L[Dab][Dab]T; lactam 4-C (inferred); N-terminus assumed) |  |  |  |  |  | MIC of colistin [1]: 0.0625 µg/mL; MIC of colistin (A. baumannii ATCC 17978 [2]): 0.5 µg/mL |
| &2Nal-D-Pro-Arg-2Nal-D-Pro-Arg& (head to tail) [RW03, AOA-2 derivative with tryptophan analog 2Nal] | 29.62 | 55.47 | 20.71 | reduced better |  | adherence of ATCC 25922 to host cells compared with AOA-2 (E. coli ATCC 25922; peptide 125, 62.5 and 31.25 μg/mL, Figure 2B): reduced with some statistical differences |
| &2Nal-D-Pro-Arg-3Pal-D-Pro-Arg& (head to tail) [RW11] |  |  |  |  | reduced |  |
| &3Pal-D-Pro-Arg-3Pal-D-Pro-Arg& (head to tail) [RW02, AOA-2 derivative with tryptophan analog 3Pal] | 61.11 | 43.58 | 42.51 | reduced better |  |  |
| &3Pal-D-Pro-Arg-Trp-D-Pro-Tyr& (head to tail) [RW13] |  |  |  |  | reduced | adherence of ATCC 25922 strain to A549 cells (in words) (E. coli ATCC 25922; [4]): reduced |
| &Arg-D-Pro-Trp-Trp-D-Pro-Arg& (head to tail) [RW08] |  |  |  |  | reduced | adherence of ATCC 17978 strain to A549 cells (in words) (A. baumannii ATCC 17978 [3]; [4]): reduced |

— paper PMC7907166, “AOA-2 Derivatives as Outer Membrane Protein A Inhibitors for Treatment of Gram-Negative Bacilli Infections” (Frontiers in Microbiology, 2021)
